This note sets out measurements from patent EP3800188A1, “SUBSTITUTED PYRAZOLOPYRIMIDINES AS IRAK4 INHIBITORS” (Bayer AG, priority 2019, dated 2021).

The assay concerns the target T1, human IRAK4 (Homo sapiens, UniProt Q9NWZ3).
T1 construct: GST (N); made in house; host or cells: baculovirus-infected Hi5 (BTI-TN-5B1-4) insect cells
T1 sequence (Q9NWZ3 1-460): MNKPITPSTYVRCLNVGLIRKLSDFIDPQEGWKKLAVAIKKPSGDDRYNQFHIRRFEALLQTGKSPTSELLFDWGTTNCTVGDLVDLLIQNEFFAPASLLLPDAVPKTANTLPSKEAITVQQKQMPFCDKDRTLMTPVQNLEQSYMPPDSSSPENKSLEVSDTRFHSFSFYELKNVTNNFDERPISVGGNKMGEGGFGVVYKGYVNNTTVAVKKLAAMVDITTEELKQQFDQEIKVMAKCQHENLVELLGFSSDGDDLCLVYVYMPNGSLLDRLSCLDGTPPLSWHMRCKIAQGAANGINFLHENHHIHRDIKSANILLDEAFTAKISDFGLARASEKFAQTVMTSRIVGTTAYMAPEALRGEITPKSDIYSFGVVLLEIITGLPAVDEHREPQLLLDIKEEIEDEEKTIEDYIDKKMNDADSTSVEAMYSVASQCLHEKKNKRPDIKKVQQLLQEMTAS
Kind of assay: Human IRAK4 kinase activity inhibition assay (IRAK4 TR-FRET assay). In kind it is biochemical. The following applies: 1 mM ATP, GST-human IRAK4, average or median values. The method in brief:
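Signal was the 665/620 nm emission ratio from a europium anti-mouse-IgG, anti-phosphoserine antibody and streptavidin-XL665 complex formed over 1 h at 22°C. It was scaled between no-enzyme (100%) and no-compound (0%) wells. Beforehand, compounds (20 µM down to 0.073 nM, 11 points) sat 15 min with roughly 0.2 nM insect-cell-expressed GST-human IRAK4 before phosphorylation of a biotinylated peptide substrate.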
On the technique in general: Time-resolved FRET reads energy transfer from a long-lived donor to a nearby acceptor.

pIC50: −log10 of the molar value.

In the case of `CS(=O)(=O)C1CN(c2nc(N[C@H]3C[C@](C)(N)C3)nc3c2cnn3-c2cccc(C(F)(F)F)c2)C1` [Example I-71, trans-1-methyl-N^3-{4-[3-(methylsulfonyl)azetidin-1-yl]-1-[3-(trifluoromethyl)phenyl]-1H-pyrazolo[3,4-d]pyrimidin-6-yl}cyclobutane-1,3-diamine], the pIC50 is 7.82.
Take `CC1(O)CCN(C2CN(c3nc(NC4CCS(=O)(=O)CC4)nc4c3cnn4-c3cccc(C(F)(F)F)c3)C2)CC1` [Example I-80, 1-(1-{6-[(1,1-dioxidotetrahydro-2H-thiopyran-4-yl)amino]-1-[3-(trifluoromethyl)phenyl]-1H-pyrazolo[3,4-d]pyrimidin-4-yl}azetidin-3-yl)-4-methylpiperidin-4-ol]: the pIC50 is 7.94.
Consider `CCS(=O)(=O)N1CC(Nc2nc(N3CC(N4CCOCC4)C3)c3cnn(-c4cccc(C(F)(F)F)c4)c3n2)C1` [Example I-81, N-[1-(ethylsulfonyl)azetidin-3-yl]-4-[3-(morpholin-4-yl)azetidin-1-yl]-1-[3-(trifluoromethyl)phenyl]-1H-pyrazolo[3,4-d]pyrimidin-6-amine], for which the pIC50 is 7.08.
In the case of `CCS(=O)(=O)[C@H]1C[C@H](Nc2nc(N3CC(N4CCOCC4)C3)c3cnn(-c4cccc(C(F)(F)F)c4)c3n2)C1` [Example I-82, N-[trans-3-(ethylsulfonyl)cyclobutyl]-4-[3-(morpholin-4-yl)azetidin-1-yl]-1-[3-(trifluoromethyl)phenyl]-1H-pyrazolo[3,4-d]pyrimidin-6-amine], the pIC50 is 7.94.
Molecule `CCS(=O)(=O)N1CC(Nc2nc(N3C[C@@H](O)[C@H](O)C3)c3cnn(-c4cccc(C(F)(F)F)c4)c3n2)C1` [Example I-84, (3R,4R)-1-(6-{[1-(ethylsulfonyl)azetidin-3-yl]amino}-1-[3-(trifluoromethyl)phenyl]-1H-pyrazolo[3,4-d]pyrimidin-4-yl)pyrrolidine-3,4-diol] gave a pIC50 of 7.32.
Regarding `CCS(=O)(=O)[C@H]1C[C@H](Nc2nc(N3C[C@@H](O)[C@H](F)C3)c3cnn(-c4cccc(C(F)(F)F)c4)c3n2)C1` [Example I-87, (3R,4R)-1-(6-{[(1r,3R)-3-(ethylsulfonyl)cyclobutyl]amino}-1-[3-(trifluoromethyl)phenyl]-1H-pyrazolo[3,4-d]pyrimidin-4-yl)-4-fluoropyrrolidin-3-ol], the pIC50 was 8.10.
`CC(C)(O)C1CCN(c2nc(N[C@H]3C[C@@](C)(O)C3)nc3c2cnn3-c2cccc(C(F)(F)F)c2)CC1` [Example I-90, cis-3-({4-[4-(2-hydroxypropan-2-yl)piperidin-1-yl]-1-[3-(trifluoromethyl)phenyl]-1H-pyrazolo[3,4-d]pyrimidin-6-yl}amino)-1-methylcyclobutanol]: the pIC50 was 7.61.
Take `CS(=O)(=O)[C@H]1C[C@H](Nc2nc(N3CCC(O)CC3)c3cnn(-c4cccc(C(F)(F)F)c4)c3n2)C1` [Example I-93, 1-(6-{[trans-3-(methylsulfonyl)cyclobutyl]amino}-1-[3-(trifluoromethyl)phenyl]-1H-pyrazolo[3,4-d]pyrimidin-4-yl)piperidin-4-ol]: the pIC50 is 7.95.
Regarding `CCS(=O)(=O)[C@H]1C[C@H](Nc2nc(N3C[C@H](O)[C@@H](F)C3)c3cnn(-c4cccc(C(F)(F)F)c4)c3n2)C1` [Example I-95, (3S,4S)-1-(6-{[(1r,3S)-3-(ethylsulfonyl)cyclobutyl]amino}-1-[3-(trifluoromethyl)phenyl]-1H-pyrazolo[3,4-d]pyrimidin-4-yl)-4-fluoropyrrolidin-3-ol], the pIC50 is 7.60.
Turning to `O[C@H]1CN(c2nc(N[C@H]3C[C@H](O)C3)nc3c2cnn3-c2cccc(C(F)(F)F)c2)C[C@@H]1F` [Example I-96, (3S,4S)-4-fluoro-1-(6-{[(1r,3S)-3-hydroxycyclobutyl]amino}-1-[3-(trifluoromethyl)-phenyl]-1H-pyrazolo[3,4-d]pyrimidin-4-yl)pyrrolidin-3-ol], the negative-log IC50 (pIC50) is 8.09. Against the preceding molecule, the pIC50 is 0.49 log units higher.
The molecule `O[C@H]1CN(c2nc(N[C@H]3C[C@@H](O)C3)nc3c2cnn3-c2cccc(C(F)(F)F)c2)C[C@@H]1F` [Example I-97, (3S,4S)-4-fluoro-1-(6-{[(1s,3R)-3-hydroxycyclobutyl]amino}-1-[3-(trifluoromethyl)-phenyl]-1H-pyrazolo[3,4-d]pyrimidin-4-yl)pyrrolidin-3-ol] gave a negative logarithm of the IC50 (pIC50) of 8.09.
In turn, `CS(=O)(=O)[C@H]1C[C@H](Nc2nc(N3CC(F)C3)c3cnn(-c4cccc(C(F)(F)F)c4)c3n2)C1` [Example I-99, 4-(3-fluoroazetidin-1-yl)-N-[trans-3-(methylsulfonyl)cyclobutyl]-1-[3-(trifluoromethyl)-phenyl]-1H-pyrazolo[3,4-d]pyrimidin-6-amine] had a pIC50 of 7.79.
In turn, `OC1CCN(c2nc(N[C@H]3C[C@H](O)C3)nc3c2cnn3-c2cccc(C(F)(F)F)c2)CC1` [Example I-100] had a pIC50 of 7.30.
`C[C@@]1(O)CCN(c2nc(N[C@H]3C[C@H](O)C3)nc3c2cnn3-c2cccc(C(F)(F)F)c2)C1` [Example I-102, (3R)-1-(6-{[(1r,3R)-3-hydroxycyclobutyl]amino}-1-[3-(trifluoromethyl)phenyl]-1H-pyrazolo[3,4-d]pyrimidin-4-yl)-3-methylpyrrolidin-3-ol] had a pIC50 of 7.30.
Then `C[C@@]1(O)CCN(c2nc(N[C@H]3C[C@H](S(C)(=O)=O)C3)nc3c2cnn3-c2cccc(C(F)(F)F)c2)C1` [Example I-103, (3R)-3-methyl-1-(6-{[(1r,3R)-3-(methylsulfonyl)cyclobutyl]amino}-1-[3-(trifluoromethyl)-phenyl]-1H-pyrazolo[3,4-d]pyrimidin-4-yl)pyrrolidin-3-ol], with 7.94; and `CC1(O)CCN(C2CN(c3nc(N[C@H]4C[C@](C)(O)C4)nc4c3cnn4-c3cccc(C(F)(F)F)c3)C2)CC1` [Example I-110, 1-(1-{6-[(trans-3-hydroxy-3-methylcyclobutyl)amino]-1-[3-(trifluoromethyl)phenyl]-1H-pyrazolo[3,4-d]pyrimidin-4-yl}azetidin-3-yl)-4-methylpiperidin-4-ol], with 7.93; and `CC(C)(O)C1CN(c2nc(N[C@H]3C[C@@H](O)C3)nc3c2cnn3-c2cccc(C(F)(F)F)c2)C1` [Example I-116, cis-3-({4-[3-(2-hydroxypropan-2-yl)azetidin-1-yl]-1-[3-(trifluoromethyl)phenyl]-1H-pyrazolo[3,4-d]pyrimidin-6-yl}amino)cyclobutanol], with 7.77.
Regarding `O[C@@H]1CCN(c2nc(N[C@H]3C[C@@H](O)C3)nc3c2cnn3-c2cccc(C(F)(F)F)c2)C1` [Example I-117, (3R)-1-(6-{[(1s,3S)-3-hydroxycyclobutyl]amino}-1-[3-(trifluoromethyl)phenyl]-1H-pyrazolo[3,4-d]pyrimidin-4-yl)pyrrolidin-3-ol], the pIC50 was 7.63.
Then `O[C@H]1C[C@@H](Nc2nc(N3CC(N4CCC(F)(F)C4)C3)c3cnn(-c4cccc(C(F)(F)F)c4)c3n2)C1` [Example I-118, cis-3-({4-[3-(3,3-difluoropyrrolidin-1-yl)azetidin-1-yl]-1-[3-(trifluoromethyl)phenyl]-1H-pyrazolo[3,4-d]pyrimidin-6-yl}amino)cyclobutanol], with 8.29.
For the molecule `O[C@H]1C[C@H](Nc2nc(N3CC(N4CC(F)C4)C3)c3cnn(-c4cccc(C(F)(F)F)c4)c3n2)C1` [Example I-119, trans-3-({4-(3-fluoro[1,3'-biazetidin]-1'-yl)-1-[3-(trifluoromethyl)phenyl]-1H-pyrazolo[3,4-d]pyrimidin-6-yl}amino)cyclobutanol], the pIC50 is 7.78.
`C[C@]1(O)C[C@H](Nc2nc(N3CC(N4CC(F)C4)C3)c3cnn(-c4cccc(C(F)(F)F)c4)c3n2)C1` [Example I-120, trans-3-({4-(3-fluoro[1,3'-biazetidin]-1'-yl)-1-[3-(trifluoromethyl)phenyl]-1H-pyrazolo[3,4-d]pyrimidin-6-yl}amino)-1-methylcyclobutanol] had a pIC50 of 7.78.
On to `O=C1COCCN1C1CN(c2nc(N[C@H]3C[C@@H](O)C3)nc3c2cnn3-c2cccc(C(F)(F)F)c2)C1` [Example I-121, 4-(1-{6-[(cis-3-hydroxycyclobutyl)amino]-1-[3-(trifluoromethyl)phenyl]-1H-pyrazolo[3,4-d]pyrimidin-4-yl}azetidin-3-yl)morpholin-3-one], for which the pIC50 was 8.44.
As for `C[C@]1(O)C[C@H](Nc2nc(N3CC(N4CCOCC4=O)C3)c3cnn(-c4cccc(C(F)(F)F)c4)c3n2)C1` [Example I-122, 4-(1-{6-[(trans-3-hydroxy-3-methylcyclobutyl)amino]-1-[3-(trifluoromethyl)phenyl]-1H-pyrazolo[3,4-d]pyrimidin-4-yl}azetidin-3-yl)morpholin-3-one], the pIC50 is 8.56.
Regarding `CC1(N2CCOCC2)CN(c2nc(N[C@H]3C[C@](C)(O)C3)nc3c2cnn3-c2cccc(C(F)(F)F)c2)C1` [Example I-123, trans-1-methyl-3-({4-[3-methyl-3-(morpholin-4-yl)azetidin-1-yl]-1-[3-(trifluoromethyl)-phenyl]-1H-pyrazolo[3,4-d]pyrimidin-6-yl}amino)cyclobutanol], the negative-log IC50 (pIC50) is 8.10. Against the preceding molecule, the pIC50 is 0.46 log units lower.

One may read the pIC50 as the IC50 on a negative log10 scale, so that one unit is a factor of ten.
